How the values were obtained:
BACE1 = BACE1 (Homo sapiens, UniProt P56817); experiment: BACE1 biochemical FRET based assay (Test Example 2-1); settings: for selectivity: BACE2 IC50 over BACE1 IC50 (FRET); for IC50: FRET, 0.04 μg/mL BACE1, 450 minutes, Citrate buffer pH 5.0
Source text: This assay is a Fluorescence Resonance Energy Transfer Assay (FRET) based assay. The substrate for this assay is an APP derived 13 amino acids peptide that contains the ‘Swedish’ Lys-Met/Asn-Leu mutation of the amyloid precursor protein (APP) beta-site secretase cleavage site. This substrate also contains two fluorophores: (7-methoxycoumarin-4-yl) acetic acid (Mca) is a fluorescent donor with excitation wavelength at 320 nm and emission at 405 nm and 2,4-dinitrophenol (Dnp) is a proprietary quencher acceptor. […] Upon cleavage by BACE1, the fluorophore Mca is separated from the quenching group Dnp, restoring the full fluorescence yield of the donor. The increase in fluorescence is linearly related to the rate of proteolysis.
Briefly in a 384-well format recombinant BACE1 protein in a final concentration of 0.04 μg/mL is incubated for 450 minutes at room temperature with […] substrate in incubation buffer (final concentrations: 33.3 mM Citrate buffer pH 5.0, 0.033% PEG, 3% DMSO) in the absence or presence of compound. Next the amount of proteolysis is directly measured by fluorescence measurement at T=0′-120′ and T=450′ (excitation at 320 nm and emission at 405 nm). Results are expressed in RFU (Relative Fluorescence Units), as difference between T450 and Tx (Tx is chosen depending on the reaction speed between 0 and 120 minutes.).
A best-fit curve is fitted by a minimum sum of squares method to the plot of % Controlmin versus compound concentration. From this an IC50 value (inhibitory concentration causing 50% inhibition of activity) can be obtained.

BACE2 = target: T1, BACE2 (Homo sapiens, UniProt Q9Y5Z0); experiment: BACE2 biochemical FRET based assay (Test Example 2-1 (2)); settings: 0.4 μg/mL BACE2, 450 minutes, Citrate buffer pH 5.0
T1 sequence (Q9Y5Z0 63-518): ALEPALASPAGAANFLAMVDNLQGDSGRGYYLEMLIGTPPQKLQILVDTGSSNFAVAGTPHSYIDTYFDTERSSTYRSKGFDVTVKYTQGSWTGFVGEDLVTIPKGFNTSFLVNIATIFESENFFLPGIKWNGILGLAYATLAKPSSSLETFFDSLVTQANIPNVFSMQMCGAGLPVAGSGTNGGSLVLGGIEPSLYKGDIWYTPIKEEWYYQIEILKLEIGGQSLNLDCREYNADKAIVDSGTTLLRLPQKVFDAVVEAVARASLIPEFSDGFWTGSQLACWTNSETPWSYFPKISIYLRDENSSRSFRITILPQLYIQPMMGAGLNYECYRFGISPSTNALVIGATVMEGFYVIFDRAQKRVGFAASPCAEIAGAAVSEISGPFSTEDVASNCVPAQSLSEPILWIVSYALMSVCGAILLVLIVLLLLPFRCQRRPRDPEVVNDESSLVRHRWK
Source text: This assay is a Fluorescence Resonance Energy Transfer Assay (FRET) based assay. The substrate for this assay contains the ‘Swedish’ Lys-Met/Asn-Leu mutation of the amyloid precursor protein (APP) beta-secretase cleavage site. This substrate also contains two fluorophores: (7-methoxycoumarin-4-yl) acetic acid (Mca) is a fluorescent donor with excitation wavelength at 320 nm and emission at 405 nm and 2,4-dinitrophenol (Dnp) is a proprietary quencher acceptor. […] Upon cleavage by the beta-secretase, the fluorophore Mca is separated from the quenching group Dnp, restoring the full fluorescence yield of the donor. The increase in fluorescence is linearly related to the rate of proteolysis. Briefly in a 384-well format recombinant BACE2 protein in a final concentration of 0.4 μg/mL was incubated for 450 minutes at room temperature with 10 μM substrate in incubation buffer (final concentrations: 33.3 mM Citrate buffer pH 5.0, 0.033% PEG, 2% DMSO) in the absence or presence of compound. Next the amount of proteolysis was directly measured by fluorescence measurement at T=0 and T=450 (excitation at 320 nm and emission at 405 nm). Results were expressed in RFU (Relative Fluorescence Units), as difference between T450 and TO.
A best-fit curve was fitted by a minimum sum of squares method to the plot of % Controlmin versus compound concentration. From this an IC50 value (inhibitory concentration causing 50% inhibition of activity) can be obtained.

CYP3A4 = target: T2, CYP3A4 (Homo sapiens, UniProt P08684); experiment: CYP3A4(MDZ) MBI test (Test Example 4-2); type: in vitro ADME; settings: pooled human liver microsomes, 10 μmol/L MDZ, pre-reaction 0 or 30 minutes; shifted IC value
T2 construct: from tissue; host or cells: pooled human liver microsomes
T2 sequence (P08684 whole entry): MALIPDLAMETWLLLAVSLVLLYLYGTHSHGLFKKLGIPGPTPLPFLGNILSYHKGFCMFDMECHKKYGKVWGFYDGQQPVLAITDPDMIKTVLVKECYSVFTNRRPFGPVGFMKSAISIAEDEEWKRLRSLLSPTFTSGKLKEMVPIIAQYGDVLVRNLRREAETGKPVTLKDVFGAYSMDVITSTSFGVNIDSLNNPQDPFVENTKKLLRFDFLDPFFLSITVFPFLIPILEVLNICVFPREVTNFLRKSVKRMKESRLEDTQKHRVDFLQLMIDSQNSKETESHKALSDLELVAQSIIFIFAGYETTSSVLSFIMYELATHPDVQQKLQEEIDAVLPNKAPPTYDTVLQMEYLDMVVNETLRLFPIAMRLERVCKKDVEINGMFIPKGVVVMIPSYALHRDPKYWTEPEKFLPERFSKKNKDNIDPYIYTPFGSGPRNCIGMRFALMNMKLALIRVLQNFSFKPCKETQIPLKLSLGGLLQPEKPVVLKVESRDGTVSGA
Protocol: CYP3A4(MDZ) MBI test is a test of investigating mechanism based inhibition (MBI) potential on CYP3A4 inhibition of a compound. CYP3A4 inhibition is evaluated using 1-hydroxylation reaction of midazolam (MDZ) by pooled human liver microsomes as a marker reaction.
The reaction conditions were as follows: substrate, 10 μmol/L MDZ; pre-reaction time, 0 or 30 minutes; substrate reaction time, 2 minutes; reaction temperature, 37° C.; protein content of pooled human liver microsomes, 0.5 mg/mL at pre-reaction time, […] (at 10-fold dilution) at reaction time; concentrations of the compound of the present invention, 1, 5, 10, 20 μmol/L (4 points).
Pooled human liver microsomes in a K-Pi buffer (pH 7.4) and a compound of the present invention solution as a pre-reaction solution were added to a 96-well plate at the composition of the pre-reaction. A part of pre-reaction solution was transferred to another 96-well plate, and diluted 10-fold by a substrate in a K-Pi buffer. NADPH as a co-factor was added to initiate the marker reaction (without preincubation). After a predetermined time of the marker reaction, methanol/acetonitrile=1/1 (v/v) solution was added in order to terminate the marker reaction. On the other hand, NADPH was also added to a remaining pre-reaction solution in order to initiate a pre-reaction (with preincubation). After a predetermined time of a pre-reaction, a part was transferred to another 96-well plate, and diluted 10-fold by a substrate in a K-Pi buffer in order to initiate the marker reaction. After a predetermined time of the marker reaction, methanol/acetonitrile=1/1 (v/v) solution is added in order to terminate the marker reaction. After centrifuged at 3000 rpm for 15 minutes, 1-hydroxymidazolam in the supernatant is quantified by LC/MS/MS.
The sample adding DMSO to a reaction system instead of compound of the present invention solution was adopted as a control (100%) because DMSO is used as a solvent to dissolve a compound of the present invention. Remaining activity (%) was calculated at each concentration of the compound of the present invention added as the solution, and IC50 value was calculated by reverse-presumption using a logistic model with a concentration and an inhibition rate. Shifted IC value was calculated as “IC value without preincubation (0 minutes)/IC value with preincubation (30 minutes)”. When a shifted IC value was 1.5 or more, this was defined as positive. When a shifted IC value was less than 1.1, this was defined as negative.

[1] = system: Abeta 1-37, Abeta 1-38, Abeta 1-40 and Abeta 1-42 in cerebrospinal fluid (CSF); experiment: Pharmacology in the beagle dog, beta-amyloid profile in CSF (Test Example 18-1); type: in vivo
Protocol: Test compounds were tested to evaluate the effect on the beta-amyloid profile in cerebrospinal fluid (CSF) of dogs after a single dose, in combination with pharmacokinetic (PK) follow up and limited safety evaluation.
In the case of compounds shown below, two beagle dogs (1 male, 1 female) were dosed with vehicle (1 mL/kg of an aqueous solution of 20% cyclodextrin) and 4 beagle dogs (2 males and 2 females) were dosed with test compound at the doses indicated in the following Table in an aqueous 20% cyclodextrin solution with a concentration in mg/mL identical to the dose given in mg/kg) on an empty stomach.
CSF was taken in conscious animals directly from the lateral ventricle via a cannula which was screwed in the skull and covered with subcutaneous tissue and skin, before and at 4, 8, 25 and 49 hours after dosing. Eight hours after dosing the animals got access to their regular meal for 30 minutes. Blood was taken for PK follow up (0.5, 1, 2, 4, 8, 25 and 49 hours) and serum samples for biochemistry were taken before and at 8 and 25 h after dosing. The CSF samples were used for measurement of Abeta 1-37, Abeta 1-38, Abeta 1-40 and Abeta 1-42.

[2] = single dose 5 mg/kg, relevant decrease = >20% decrease
[3] = single dose 10 mg/kg, relevant decrease = >20% decrease

Chain of BACE1 (P56817 46-501): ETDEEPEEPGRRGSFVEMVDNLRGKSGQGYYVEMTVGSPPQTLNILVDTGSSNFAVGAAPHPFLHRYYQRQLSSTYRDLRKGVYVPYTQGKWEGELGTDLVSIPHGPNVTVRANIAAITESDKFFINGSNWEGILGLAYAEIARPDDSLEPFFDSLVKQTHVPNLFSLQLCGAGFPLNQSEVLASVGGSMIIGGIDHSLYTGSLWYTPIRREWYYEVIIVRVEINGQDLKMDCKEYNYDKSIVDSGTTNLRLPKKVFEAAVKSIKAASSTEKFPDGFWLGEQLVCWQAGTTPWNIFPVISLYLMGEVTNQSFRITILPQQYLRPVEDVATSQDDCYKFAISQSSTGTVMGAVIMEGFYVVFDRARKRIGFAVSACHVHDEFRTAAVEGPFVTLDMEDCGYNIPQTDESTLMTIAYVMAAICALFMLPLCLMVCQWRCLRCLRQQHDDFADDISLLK

selectivity (BACE1)	IC50 (BACE1) [nM]	IC50 (BACE2) [nM]	MBI MDZ (CYP3A4)	SMILES	% Decrease in Abeta 1-42 at 8 h post dosing compared to own baseline ([1]; single dose 2.5 mg/kg) [%]	% Decrease in Abeta 1-42 at 8 h post dosing compared to own baseline ([1]; single dose 5 mg/kg) [%]	% Decrease in Abeta 1-42 at 25 h post dosing compared to own baseline [1, 2] [%]	% Decrease in Abeta 1-42 at 8 h post dosing compared to own baseline ([1]; single dose 10 mg/kg) [%]	% Decrease in Abeta 1-42 at 25 h post dosing compared to own baseline [1, 3] [%]	% Decrease in Abeta 1-42 at 8 h post dosing compared to own baseline ([1]; single dose 0.63 mg/kg) [%]	% Decrease in Abeta 1-42 at 25 h post dosing compared to own baseline ([1]; single dose 2.5 mg/kg, relevant decrease = >20% decrease) [%]	% Decrease in Abeta 1-42 at 49 h post dosing compared to own baseline ([1]; single dose 10 mg/kg, 49 h, relevant decrease = >20% decrease) [%]
301	2.2	661	Negative	NC1=N[C@](CF)(c2cc(NC(=O)c3cc4c(cn3)OC(F)(F)CO4)ccc2F)[C@H]2COCC[C@H]2O1 [Compound I-035]	−52	−63	−27	−82	−28			
136	3.6	490	Negative	C[C@H]1OC[C@H]2[C@@H]1OC(N)=N[C@]2(CF)c1cc(NC(=O)c2cc3c(cn2)OC(F)(F)CO3)ccc1F [Compound I-049]								
200	10	2000		C[C@@H]1C[C@H]2OC(N)=N[C@](CF)(c3cc(NC(=O)c4cc5c(cn4)OC(F)(F)CO5)ccc3F)[C@H]2CO1 [Compound I-053]	−50					−31	−27	
166	13.2	2190	Negative	NC1=N[C@](CF)(c2cc(NC(=O)c3cc4c(cn3)OC(F)(F)O4)ccc2F)[C@H]2COCC[C@H]2O1 [Compound I-036]								
263	8.32	2190	Negative	NC1=N[C@](CF)(c2cc(NC(=O)c3cc4c(cn3)OC(F)(F)CO4)ccc2F)[C@H]2CCOC[C@H]2O1 [Compound I-046]								

The remaining lines, values behind:

SMILES	selectivity (BACE1)	IC50 (BACE1) [nM]	IC50 (BACE2) [nM]	MBI MDZ (CYP3A4)	% Decrease in Abeta 1-42 at 8 h post dosing compared to own baseline ([1]; single dose 2.5 mg/kg) [%]	% Decrease in Abeta 1-42 at 8 h post dosing compared to own baseline ([1]; single dose 5 mg/kg) [%]	% Decrease in Abeta 1-42 at 25 h post dosing compared to own baseline [1, 2] [%]	% Decrease in Abeta 1-42 at 8 h post dosing compared to own baseline ([1]; single dose 10 mg/kg) [%]	% Decrease in Abeta 1-42 at 25 h post dosing compared to own baseline [1, 3] [%]	% Decrease in Abeta 1-42 at 8 h post dosing compared to own baseline ([1]; single dose 0.63 mg/kg) [%]	% Decrease in Abeta 1-42 at 25 h post dosing compared to own baseline ([1]; single dose 2.5 mg/kg, relevant decrease = >20% decrease) [%]	% Decrease in Abeta 1-42 at 49 h post dosing compared to own baseline ([1]; single dose 10 mg/kg, 49 h, relevant decrease = >20% decrease) [%]
CN1C(N)=N[C@](C)(c2cc(NC(=O)c3cc4c(cn3)OC(F)(F)O4)ccc2F)CS1(=O)=O [Compound I-012]	18.7	2.9	53.7	Negative								
CN1C(N)=N[C@](C)(c2cc(NC(=O)c3cc4c(cn3)OC(F)(F)CO4)ccc2F)CS1(=O)=O [Compound I-011]	15.9	1.2	18.6	Negative		−54	−37	−74	−77			−30
CC1(C)C(N)=N[C@](C)(c2cc(NC(=O)c3cc4c(cn3)OC(F)(F)O4)ccc2F)CS1(=O)=O [Compound I-027]				Negative								
[2H]C1([2H])Oc2cnc(C(=O)Nc3ccc(F)c([C@]4(C)CS(=O)(=O)C(C)(C)C(N)=N4)c3)cc2OC1([2H])[2H] [Compound I-026]				Negative								
CC1(C)C(N)=N[C@](C)(c2cc(NC(=O)c3cc4c(cn3)OC(F)(F)CO4)ccc2F)CS1(=O)=O [Compound I-024]				Negative	−66					−40		

From US20210261561A1, “BICYCLIC HETEROCYCLE DERIVATIVES HAVING SELECTIVE BACE1 INHIBITORY ACTIVITY” (SHIONOGI & CO., LTD., priority 2018, published 2021)
